Measured values published in patent publication US6384224B2, “Certain 1-(2-naphthyl) and 1-(2-azanaphthyl)-4-(1-phenylmethyl) piperazines; dopamine receptor subtype specific ligands” (Neurogen Corporation, priority 1997, dated 2002).

Legend:
[1] = test system: D4 receptors; assay: D4 receptor binding, 3H-YM 09151-2 displacement, COS cell pellets; design: species or system African Green monkey; details: for IC50: evaluated in the assays described above (Example 7), read-out: interaction with the D4 receptor subtype (IC50); for Ki: recombinant receptor in COS cells, 0.5 nM 3H-YM 09151-2
Procedure: (§1) Pellets of COS cells containing recombinantly produced D2 or D4 receptors from African Green monkey are used for the assays. The sample is homogenized in 100 volumes (w/vol) of 0.05 M Tris HCl buffer at 4° C. and pH 7.4. The sample is then centrifuged at 30,000×g and resuspended and rehomogenized. The sample is again centrifuged as described above and the final tissue sample is frozen until use. The tissue is resuspended 1:20 (wt/vol) in 0.05 M Tris HCl buffer containing 100 mm NaCl.
(§2) Incubations are carried out at […] and contain 0.4 ml of tissue sample, 0.5 nM ^3H-YM 09151-2 (Nemonapride, cis-5-Chloro-2-methoxy-4-(methylamino)-N-(2-methyl-2-(phenylmethyl)-3-pyrrolidinyl)benzamide) and the compound of interest in a total incubation of 1.0 ml. Nonspecific binding is defined as that binding found in the presence of […]; without further additions, nonspecific binding is less than 20% of total binding. Binding characteristics for examples of compounds encompassed within Formula I for the D2 and D4 receptor subtypes are shown in Table 2 for rat striatal homogenates.

[2] = target: T1, D2 receptors (Chlorocebus aethiops, UniProt P52702); assay: D2 receptor binding, 3H-YM 09151-2 displacement, COS cell pellets; design: species or system African Green monkey; details: recombinant receptor in COS cells; 0.5 nM 3H-YM 09151-2
T1 construct: expressed in transfected cells; host or cells: COS cells
T1 sequence (P52702 whole entry): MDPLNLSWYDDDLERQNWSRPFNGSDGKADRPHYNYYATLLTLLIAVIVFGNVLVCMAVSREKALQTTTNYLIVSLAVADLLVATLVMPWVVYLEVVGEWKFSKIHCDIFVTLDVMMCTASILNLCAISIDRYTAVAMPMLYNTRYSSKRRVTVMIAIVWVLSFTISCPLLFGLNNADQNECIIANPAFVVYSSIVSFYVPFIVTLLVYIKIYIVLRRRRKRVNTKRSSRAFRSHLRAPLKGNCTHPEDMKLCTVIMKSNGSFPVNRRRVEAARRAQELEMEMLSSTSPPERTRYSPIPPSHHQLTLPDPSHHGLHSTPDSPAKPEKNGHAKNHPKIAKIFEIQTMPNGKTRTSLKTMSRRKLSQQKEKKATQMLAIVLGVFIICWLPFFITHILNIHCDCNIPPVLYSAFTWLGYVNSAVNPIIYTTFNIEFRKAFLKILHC
Procedure: as §1, §2

Structure (SMILES) | melting point | further results
CC(C)c1ccc(CN2CCN(c3ccc4ccccc4n3)CC2)cc1.Cl | 270 to 271 °C | 
CC(C)(C)c1ccc(CN2CCN(c3ccc4ccccc4n3)CC2)cc1.Cl | 285 to 287 °C | 
Br.FC(F)(F)c1ccc(CN2CCN(c3ccc4ccccc4n3)CC2)cc1 | 271 to 273 °C | 
Br.c1ccc2nc(N3CCN(Cc4ccc5c(c4)OCO5)CC3)ccc2c1 | 279 to 280 °C | 
Br.Cc1cc(N2CCN(Cc3ccc(Cl)cc3)CC2)nc2c(C)cccc12 | 262 to 264 °C | 
Fc1cc(N2CCN(Cc3ccccc3)CC2)nc2ccccc12.O=C(O)C(=O)O | 186 to 187 °C | 
Fc1ccc(CN2CCN(c3cc(F)c4ccccc4n3)CC2)cc1.O=C(O)C(=O)O | 191 to 193 °C | 
COc1ccc2nc(N3CCN(Cc4ccc(Cl)cc4)CC3)cc(C)c2c1.Cl | 250 to 253 °C | 
Br.Cc1ccc(CN2CCN(c3ccc4ccccc4c3)CC2)cc1 | 222 to 223 °C | 
Br.Fc1ccc(CN2CCN(c3ccc4ccccc4c3)CC2)cc1 | 244 to 246 °C | 
Br.Fc1cccc(CN2CCN(c3ccc4ccccc4c3)CC2)c1 | 253 to 255 °C | 
Br.Fc1ccccc1CN1CCN(c2ccc3ccccc3c2)CC1 | 239 to 240 °C | 
c1ccc(CN2CCN(c3ccc4ccccc4c3)CC2)cc1 [Comparative Compound A, 1-naphth-2-yl-4-benzylpiperazine, reference compound] |  | IC50 [1]: 33 nM
c1ccc(CN2CCN(c3ccc4ccccc4n3)CC2)cc1 [Comparative Compound B, 1-(quinolin-2-yl)-4-benzylpiperazine, reference compound] |  | IC50 [1]: 194 nM
Cc1ccc(CN2CCN(c3ccc4ccccc4n3)CC2)cc1 [Compound 2] |  | Ki [1]: 8 nM; Ki [2]: > 4000 nM
Clc1ccc(CN2CCN(c3cnc4ccccc4n3)CC2)cc1 [Compound 3] |  | Ki [1]: 11 nM; Ki [2]: > 4000 nM
Clc1ccc(CN2CCN(c3ccc4ccccc4c3)CC2)cc1 [Compound 6] |  | Ki [1]: 9 nM; Ki [2]: > 4000 nM
Clc1ccc(CN2CCN(c3ccc4c(n3)CCCC4)CC2)cc1 [Compound 7] |  | Ki [1]: 7 nM; Ki [2]: 1930 nM
FC(F)(F)Oc1ccc(CN2CCN(c3ccc4ccccc4n3)CC2)cc1 [Example 3(l), 1-(quinolin-2-yl)-4-(1-[4-trifluoromethoxyphenyl]methyl)piperazine] | 109 to 110 °C | 

Further lines, with some results ahead:

melting point | Structure (SMILES) | further results
207 to 209 °C | Clc1ccc(CN2CCN(c3ncc4ccccc4n3)CC2)cc1.O=C(O)C(=O)O | 
209 to 212 °C | Clc1ccc(CN2CCN(c3cnc4ccccc4n3)CC2)cc1.O=C(O)C(=O)O | 
293 to 295 °C | Br.Cc1nc2ccccc2nc1N1CCN(Cc2ccc(Cl)cc2)CC1 | 
278 to 280 °C | Cc1ccc(CN2CCN(c3ccc4ccccc4n3)CC2)cc1.Cl | 
268 to 271 °C | Br.Clc1ccc(CN2CCN(c3ccc4ccccc4n3)CC2)cc1 | 
285 to 287 °C | Br.Clc1ccc(CN2CCN(c3ccc4ccccc4n3)CC2)cc1Cl | 
215 to 217 °C | Br.Cc1cc(N2CCN(Cc3ccc(Cl)cc3)CC2)nc2ccccc12 | 
295 to 296 °C | Br.Cc1ccc2c(C)cc(N3CCN(Cc4ccc(Cl)cc4)CC3)nc2c1 | 
216 to 218 °C | Cl.Clc1ccc(CN2CCN(c3ccc4ccccc4c3)CC2)cc1 | 
